Experiment [1] concerns the target T1, human recombinant ATX (Homo sapiens, UniProt Q13822).
T1 construct: purchased Cayman Chemical
The experiment in a line: Hydrolysis of cPA analogues by ATX (LC-QqQ). It counts as biochemical. The conditions noted are these: substrate 10 µM, ATX 50 nM, 37 °C, time-dependent. As to the method: Analyses of LPA from cPA, 2carbaLPA from 2ccPA, and 3carbaLPA from 3ccPA were performed using LC-QqQ as per methods described previously. cPA 18:1, or 2ccPA 18:1 and 3ccPA 18:1 mixture as substrate (10 μM each) were incubated at 37 °C for 2 h with human recombinant ATX (final concentration: 50 nM) and subjected to LC-QqQ. 2carbaLPA and 3carba LPA were both detected in the negative ion mode with selected reaction monitoring (SRM) of the transition from m/z 433.27 to m/z 151.02. To separate α-LPA and the predicted β-LPA or 2carbaLPA and 3carbaLPA, LC method was performed as per previously described protocols with some modifications. Briefly, the UHPLC PEEK Inertsil ODS-3 C18 column (3 µm, 2.1 × 150 mm; GL Sciences, Tokyo, Japan) was used and the compounds were eluted with a gradient solvent system: solvent A (5 mM ammonium formate in water containing 0.0096% formic acid, pH 4.0), solvent B (5 mM ammonium formate in 95% acetonitrile/5% water containing 1.16% formic acid, pH 4.0). The analytical procedure commenced with solvent B 55% for 10 min, followed by a linear gradient 85% for 40 min that was maintained at 85% for 15 min. […] The flow rate was 0.2 mL/min at a column temperature of 40 ℃. The injection volume was 10 µL/sample.
Supplementary Figure S4. Lysophosphatidic acid (LPA) produced from cyclic phosphatidic acid (cPA), 2-carba-lysophosphatidic acid (2carbaLPA) produced from 2-carba-cyclic phosphatidic acid (2ccPA) and 3-carba-lysophosphatidic acid (3carbaLPA) produced from 3-carba-cyclic phosphatidic acid (3ccPA) by autotaxin (ATX). (a) cPA 16:0, (b) 2ccPA or (c) 3ccPA (final concentration: 10 µM each) was incubated with or without human recombinant ATX (50 nM final concentration) at 37°C. The amount of produced (a) LPA 16:0, (b) 2carbaLPA or (c) 3carbaLPA was detected using liquid chromatography with tandem mass spectrometry (LC-QqQ) and presented as peak area (counts). Data are represented as mean ± standard deviation of experiments conducted in duplicate. […]

The target of experiment [2] is T1, human recombinant ATX. The experiment can be described thus: LC-QqQ assay of LPC cleavage by ATX (LPA 16:0 production). The note with it: for ATX inhibitory activity (LPA 16:0 production, LC-QqQ): 10 µM, LPC 16:0 300 µM, ATX 50 nM, 2 h, 37 °C; for Inhibition of the lysoPLD activity of ATX: stated in Conclusions, assay and concentration not given. It counts as biochemical. As to the method:
Figure 5 Inhibition of lysophospholipase D activity of autotaxin (ATX) by cyclic phosphatidic acid (cPA) analogues. (a) Concentration–response curves for the inhibition of ATX activity as measured by the […] of the substrate lysophosphatidylcholine (LPC) using choline oxidase and peroxidase. LPC 16:0 (final concentration: 300 µM, above its critical micellar concentration [CMC]), human recombinant ATX (final concentration: 50 nM), and various concentrations of cPA analogues were used for incubation with 4-aminoantipyrine, TOOS (final concentration: 0.05% (w/v) each), choline oxidase and peroxidase (final concentration: 10 U/mL each) in the ATX assay buffer. The absorbance at a wavelength of 555 nm was measured at 0 and 2 h incubation at 37 °C. Inhibition was calculated as percentage (%) of reduction in absorbance compared with absorbance in the vehicle control (without cPA analogues) after subtraction of the value measured at time 0. Data are represented as mean ± standard deviation (n = 3–4 samples). (b) Inhibition of ATX activity measured by lysophosphatidic acid (LPA 16:0) production via liquid chromatography coupled to triple quadrupole mass spectrometry (LC-QqQ). The substrate LPC 16:0 (final concentration: 300 µM) was incubated with human recombinant ATX (final concentration: 50 nM) and cPA analogues (final concentration: 10 μM) for 2 h at 37 °C. The ATX product, LPA 16:0, was quantified by LC-QqQ. Inhibition was calculated as percentage (%) of reduction in LPA production compared with LPA production in the vehicle control (without cPA analogues). Data are represented as mean ± standard deviation (n = 5–6 samples). TEXT PRINTED IN THE PICTURE: (b) LPA: ATX Inhibition, %: ND
ATX (4 µL, final concentration: 50 nM) and cPA analogues (4 µL, final concentration: 10 µM) were added to a 200-µL siliconized microcentrifuge tube and mixed with 32 µL of LPC 16:0 (final concentration: 300 µM) in ATX assay buffer. After incubation at 37 °C for 2 h, 160 µL of acidic methanol was added to stop enzymatic reaction. Sample solutions were filtered, and the LPA 16:0 production was analysed using LC-QqQ as per methods described previously. Inhibition was calculated as a percentage (%) of reduction in LPA production compared to LPA production in the vehicle control (without cPA analogues).

Data on 4 molecules can be found in paper PMC8405639, “2-Carba-lysophosphatidic acid is a novel β-lysophosphatidic acid analogue with high potential for lysophosphatidic acid receptor activation and autotaxin inhibition” (Scientific Reports, 2021).

In the case of `CCCCCCCC/C=C\CCCCCCCC(=O)OCC1COP(=O)(O)C1` (centres unmarked) [2ccPA 18:1, 2-carba-cyclic phosphatidic acid], the “Hydrolysis by ATX” value in experiment [1] was 2ccPA to 2carbaLPA.
With `CCCCCCCC/C=C\CCCCCCCC(=O)OC[C@@H](O)CCP(=O)(O)O` [3carba LPA 18:1, 3-carba-lysophosphatidic acid], the “ATX inhibitory activity (LPA 16:0 production, LC-QqQ)” value (“ATX inhibitory activity” below) in experiment [2] is on record as “significantly stronger than that of 3ccPA”.
Turning to `CCCCCCCC/C=C\CCCCCCCC(=O)OC[C@@H]1CCP(=O)(O)O1` [3ccPA 18:1, 3-carba-cyclic phosphatidic acid], the “Hydrolysis by ATX” value in experiment [1] was “hydrolysed to 3carbaLPA by ATX”. Also, in experiment [2], the “ATX inhibitory activity” value was “weak” and the “Inhibition of the lysoPLD activity of ATX” value was found to be 30%.
With `CCCCCCCC/C=C\CCCCCCCC(=O)OC[C@@H]1COP(=O)(O)O1` [cPA 18:1, 1-Oleoyl-cPA], the “Hydrolysis by ATX” value in experiment [1] was “hydrolyses cPA to LPA”. In experiment [2], the “ATX inhibitory activity” value was “poor ATX inhibitor” and the “Inhibition of the lysoPLD activity of ATX” value amounted to 10%.
